According to the supplement of paper PMC10307832:

Experiments:
Test in all cases: relative viability (nuclei count vs DMSO), 5 days (fraction); higher = more cells survive
JQ1 = compound: Cc1sc2c(c1C)C(c1ccc(Cl)cc1)=N[C@@H](CC(=O)OC(C)(C)C)c1nnc(C)n1-2 [JQ1]
Outline: (§1)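 Nuclei counted with MetaXpress define viability as the ratio of treated to vehicle wells, given as a median across plates. The lung cancer cell lines were in 1536-well plates, pinned with five √10-spaced library-drug doses and imaged at 4× after 5 days and Hoechst staining. Plates passed with control CV below 25% and at least one doubling.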

Docetaxel = compound: CC(=O)O[C@@]12CO[C@@H]1C[C@H](O)[C@@]1(C)C(=O)[C@H](O)C3=C(C)[C@@H](OC(=O)[C@H](O)[C@@H](NC(=O)OC(C)(C)C)c4ccccc4)C[C@@](O)([C@@H](OC(=O)c4ccccc4)[C@H]21)C3(C)C [Docetaxel]
Outline: as §1

Pimozide = compound: O=c1[nH]c2ccccc2n1C1CCN(CCCC(c2ccc(F)cc2)c2ccc(F)cc2)CC1 [Pimozide]
Outline: as §1

Cytarabine = compound: Nc1ccn([C@@H]2O[C@H](CO)[C@@H](O)[C@@H]2O)c(=O)n1 [Cytarabine]
Outline: as §1

[1] = compound: Cc1cnc(-c2cnc(NCCNc3ccc(C#N)cn3)nc2-c2ccc(Cl)cc2Cl)[nH]1
Outline: as §1

CPI-613 = compound: O=C(O)CCCCC(CCSCc1ccccc1)SCc1ccccc1 [CPI-613]
Outline: as §1

Tivozanib = compound: COc1cc2nccc(Oc3ccc(NC(=O)Nc4cc(C)on4)c(Cl)c3)c2cc1OC [Tivozanib]
Outline: as §1

Row | Cell Line | relative viability (JQ1; 0.04 µM) | relative viability (JQ1; 0.1265 µM) | relative viability (JQ1; 0.4 µM) | relative viability (JQ1; 1.265 µM) | relative viability (JQ1; 4 µM) | relative viability (Docetaxel; 0.0002 µM) | relative viability (Docetaxel; 0.000632 µM) | relative viability (Docetaxel; 0.002 µM) | relative viability (Docetaxel; 0.006325 µM) | relative viability (Docetaxel; 0.02 µM) | relative viability (Pimozide; 0.08 µM) | relative viability (Pimozide; 0.253 µM) | relative viability (Pimozide; 0.8 µM) | relative viability (Pimozide; 2.53 µM) | relative viability (Pimozide; 8 µM) | relative viability (Cytarabine; 0.005 µM) | relative viability (Cytarabine; 0.01581 µM) | relative viability (Cytarabine; 0.05 µM) | relative viability (Cytarabine; 0.1581 µM) | relative viability (Cytarabine; 0.5 µM) | relative viability ([1]; 0.08 µM) | relative viability ([1]; 0.253 µM) | relative viability ([1]; 0.8 µM) | relative viability ([1]; 2.53 µM) | relative viability (CPI-613; 5 µM) | relative viability (CPI-613; 15.81 µM) | relative viability (CPI-613; 50 µM) | relative viability (CPI-613; 158.11 µM) | relative viability (CPI-613; 500 µM) | relative viability (Tivozanib; 0.005 µM) | relative viability (Tivozanib; 0.01581 µM) | relative viability (Tivozanib; 0.05 µM) | relative viability (Tivozanib; 0.1581 µM) | relative viability (Tivozanib; 0.5 µM)
1 | ChaGo-K-1 | 0.93 | 0.845 | 0.956 | 0.901 | 0.743 | 1 | 0.691 | 0.636 | 0.349 | 0.196 | 1.08 | 0.95 | 0.975 | 0.96 | 0.961 | 0.687 | 0.681 | 0.509 | 0.383 | 0.283 | 0.987 | 0.854 | 1.02 | 0.939 | 0.918 | 0.981 | 0.975 | 0.705 | 0.411 | 0.979 | 0.956 | 0.97 | 0.909 | 0.921
2 | EBC-1 | 0.922 | 0.596 | 0.372 | 0.138 | 0.141 | 0.89 | 0.693 | 0.241 | 0.25 | 0.152 | 0.996 | 0.94 | 0.899 | 0.901 | 0.942 | 0.817 | 0.816 | 0.623 | 0.478 | 0.336 | 0.982 | 0.914 | 0.975 | 0.987 | 0.962 | 0.823 | 0.828 | 0.661 | 0.556 | 0.951 | 0.96 | 0.979 | 0.929 | 0.918
3 | EKVX | 0.997 | 0.781 | 0.939 | 0.827 | 0.769 | 0.97 | 0.874 | 0.462 | 0.262 | 0.176 |  | 0.906 | 0.923 | 0.978 | 0.984 | 1.02 | 0.913 | 0.694 | 0.364 | 0.362 | 1 | 0.824 | 0.975 | 0.835 | 0.935 | 0.959 | 0.932 | 0.628 | 0.935 | 0.908 | 0.989 | 1.09 | 0.939 | 0.971
4 | EMC-BAC-2 | 0.922 | 0.667 | 0.842 | 0.519 | 0.48 | 0.905 | 0.736 | 0.483 | 0.304 | 0.268 | 0.969 | 0.933 | 0.884 | 0.933 | 0.955 | 1.04 | 0.866 | 0.492 | 0.349 | 0.257 | 1.02 | 0.96 | 0.923 | 0.897 | 0.973 | 0.875 | 0.982 | 0.782 | 0.189 | 0.935 | 1.06 | 1 | 0.752 | 0.792
5 | EPLC-272H | 0.801 | 0.797 | 0.789 | 0.433 | 0.289 | 0.878 | 0.533 | 0.244 | 0.104 | 0.071 | 0.852 | 0.896 | 0.842 | 0.7 | 0.61 | 0.768 | 0.572 | 0.487 | 0.331 | 0.173 | 1.02 | 0.836 | 0.937 | 0.962 | 0.9 | 0.834 | 0.839 | 0.783 | 0.449 | 0.908 | 0.885 | 0.947 | 0.731 | 0.635
6 | H3255 | 0.874 | 0.665 | 0.912 | 0.456 | 0.336 | 0.899 | 0.978 | 0.657 | 0.336 | 0.3 |  | 0.913 | 0.907 | 0.907 | 0.948 | 0.96 | 0.922 | 0.763 | 0.695 | 0.591 | 1.02 | 0.887 | 0.994 | 0.999 | 0.94 | 0.803 | 0.984 | 0.92 | 0.888 | 0.922 | 0.985 | 0.882 | 0.828 | 0.926
7 | HARA | 0.867 | 0.569 | 0.533 | 0.322 | 0.288 | 0.796 | 0.46 | 0.197 | 0.188 | 0.0932 | 0.812 | 0.995 | 0.876 | 0.952 | 0.908 | 0.788 | 0.716 | 0.397 | 0.24 | 0.221 | 1.01 | 0.737 | 0.859 | 0.833 | 0.909 | 0.862 | 0.984 | 0.6 | 0.0433 | 0.928 | 0.963 | 0.995 | 0.937 | 0.976
8 | HCC-15 | 0.97 |  | 0.859 | 0.656 | 0.6 | 0.8 | 0.536 | 0.229 | 0.257 | 0.149 | 1.05 | 0.965 | 0.725 | 0.961 | 0.9 | 1.07 | 0.988 | 0.966 | 0.828 | 0.547 | 1.06 | 0.686 | 0.953 | 0.892 | 0.96 | 0.914 | 0.908 | 0.465 | 0.264 | 0.962 | 0.922 | 0.949 | 1.07 | 0.89
9 | HCC-44 | 0.977 | 0.776 | 0.778 | 0.438 | 0.308 | 0.956 | 0.949 | 0.587 | 0.296 | 0.198 | 0.986 | 0.95 | 0.876 | 0.911 | 0.952 | 0.989 | 0.882 | 0.643 | 0.614 | 0.356 | 0.986 | 0.867 | 1.07 | 1.08 | 1.01 | 0.958 | 1.03 | 0.869 | 0.51 | 0.936 | 0.949 | 0.976 | 1.02 | 0.87
10 | HCC-78 | 0.936 | 0.853 | 0.843 | 0.601 | 0.434 | 0.91 | 0.784 | 0.48 | 0.482 | 0.382 | 0.859 |  | 0.828 | 0.837 | 0.932 | 1.09 | 0.844 | 0.593 | 0.444 | 0.339 | 0.999 | 0.807 | 0.936 | 0.928 | 0.875 | 0.835 | 0.994 | 0.921 | 0.839 | 0.85 | 0.942 | 0.955 | 0.732 | 0.757
